Source: paper PMC12057046, “Elucidation of short linear motif-based interactions of the MIT and rhodanese domains of the ubiquitin-specific protease 8” (Biology Direct, 2025)

System: USP8 MIT domain
Test: Peptide-phage display-based deep mutational scanning (DMS), USP8 MIT domain
Type: binding, human
Conditions: sheet S3.B_ProP-PD_pairs, bait USP8_MIT__P40818_1_142
Description: The residues of these 16 amino acid-long wild-type peptides were substituted to all natural amino acid residues, except cysteine, in all positions (Supplementary Table S2A). The designed peptide sequences were reverse-translated to oligonucleotides optimized to the codon usage of E. coli. The required flanking regions (5´[…] and 3´[…]) were added for library construction. The library was generated as previously described.
Four rounds of phage selections were carried out using the second generation human disorderome library or the constructed deep mutational scanning library. At least three individual replicates were used for each bait protein. 10 µg of GST-tagged proteins or GST control (diluted in PBS from the stock of proteins kept in the purification elution buffer) were immobilized in 100 µL PBS on a 96-well MaxiSorp (Nunc) plate overnight at 4 °C. The plates were incubated with blocking buffer (with 0.5% BSA in PBS) for 1 h at 4 °C followed by washing with 0.05% Tween 20 in PBS four times. The naïve phage library (10^11 CFU) was diluted in 1/5th volume PEG/NaCl (20% PEG-8000, 0.4 M NaCl) and 1X PBS, incubated on ice for 10 min and centrifuged at 10,000 [drawing 3] g for 10 min. The pellet was resuspended in the volume of PBS (100 µL/ well). The GST-coated control plate was incubated with 100 µL library per well in PBS for 1 h at 4 °C to remove non-specific binders. The supernatant was transferred to the target wells and incubated for 2 h at 4 °C. The wells were washed five times with 0.05% Tween 20 in PBS and the bound phages were eluted with 100 µL per well log-phase E. coli OmniMAX by incubating at 37° C while shaking. After 30 min, M13KO7 helper phages were added and incubated for an additional 45 min. The bacterial cultures were transferred to 1 mL 2YT supplemented with 100 µg/mL carbenicillin, 30 µg/mL kanamycin and 0.3 mM IPTG and grew overnight at 37 °C while shaking. The following day the cultures were centrifuged for 10 min at 2,000 [drawing 4] g, 4 °C. 1/10th volume of 10 [drawing 5] PBS was added to adjust the pH and heated at 65 °C for 10 min. The phage pools from each round were used as in-phages for the next round of selections.
The samples were prepared for NGS as previously described. Peptide-coding regions of the enriched phage pools were amplified and barcoded using Phusion High-Fidelity PCR Master Mix (Thermo Fisher) for 22 cycles and confirmed by 2% agarose gel electrophoresis. The PCR products were normalized with 25 µL Mag-bind Total Pure NGS beads (Omega Biotek) and 10 µL of each eluted sample (Qiagen Elution Buffer) was pooled and cleaned-up with a PCR purification kit (Qiagen). The PCR product was confirmed by 2% agarose electrophoresis and the band was extracted with QIAquick Gel extraction Kit (Qiagen) and eluted with 30 µL TE buffer. The dsDNA was quantified using QuantiT PicoGreen dsDNA Assay Kit (Thermo Fisher) and sent for NGS (Illumina MiSeq v3, 1 × 150 bp read setup, 20% PhiX, NGI SciLifeLab facility, Sweden). The NGS data were demultiplexed, adapter regions were trimmed and sequences with an average quality of at least 20 were translated to peptide sequences. The NGS data were analysed using custom Python scripts. The total read NGS counts for each selection experiment of each peptide sequence were compiled and annotated in PepTools (https://slim.icr.ac.uk/tools/peptools/). Since ProP-PD is in essence a competition assay, the possibility of the input phage library influencing the selection outcome was explored. For this, the Pearson correlation coefficient, p-value and coefficient of determination were calculated for all peptide NGS count fractions in the library coverage vs. in the selections results (Supplementary Fig. S7; Supplementary Table S2B; Supplementary Table S3B; Supplementary Table S7B). Pearson correlation coefficient and p-value were calculated using Python’s SciPy library. […]

[1] = ratio within the wild-type/mutant pair, larger over smaller averaged fraction (direction from fraction_wt and fraction_mut)
[2] = EFCAB12 (Q6NXP0) 2-17, pair of mutant with wild-type wt_00016 (MDDDYEAYHSLFLSLL)

Sequence	hit_pair_ratio [1]	hit_pair_ratio [2]
LEVSDIESRIAALRAA	16.71	
MADDYEAYHSLFLSLL [mut_04339]		13.05
MDADYEAYHSLFLSLL [mut_04357]		1.08
MDDDAEAYHSLFLSLL [mut_04393]		42.41
MDDDDEAYHSLFLSLL [mut_04394]		12.10
MDDDFEAYHSLFLSLL [mut_04396]		37.55
MDDDGEAYHSLFLSLL [mut_04397]		12.55
MDDDHEAYHSLFLSLL [mut_04398]		169.63
MDDDIEAYHSLFLSLL [mut_04399]		3.38
MDDDKEAYHSLFLSLL [mut_04400]		168.96
MDDDLEAYHSLFLSLL [mut_04401]		337.92
MDDDQEAYHSLFLSLL [mut_04405]		14.11
MDDDVEAYHSLFLSLL [mut_04409]		337.92
MDDDWEAYHSLFLSLL [mut_04410]		56.54
MDDDYAAYHSLFLSLL [mut_04411]		3.89
MDDDYDAYHSLFLSLL [mut_04412]		12.14
MDDDYEAFHSLFLSLL	25.99	
MDDDYEAIHSLFLSLL	132.20	
MDDDYEALHSLFLSLL	56.39	
MDDDYEAMHSLFLSLL	337.92	
MDDDYEANHSLFLSLL	42.28	
MDDDYEASHSLFLSLL	112.64	
MDDDYEATHSLFLSLL	17.79	
MDDDYEAVHSLFLSLL	48.27	

Sequence	hit_pair_ratio [1]	hit_pair_ratio [2]
MDDDYEAWHSLFLSLL	1.40	
MDDDYEAYASLFLSLL	5.54	
MDDDYEAYDSLFLSLL	337.92	
MDDDYEAYFSLFLSLL	29.21	
MDDDYEAYHALFLSLL	168.96	
MDDDYEAYHDLFLSLL	11.69	
MDDDYEAYHELFLSLL	112.94	
MDDDYEAYHGLFLSLL	10.26	
MDDDYEAYHHLFLSLL	11.27	
MDDDYEAYHKLFLSLL	169.63	
MDDDYEAYHLLFLSLL	17.79	
MDDDYEAYHMLFLSLL	7.51	
MDDDYEAYHNLFLSLL	1.00	
MDDDYEAYHPLFLSLL	19.88	
MDDDYEAYHQLFLSLL	337.92	
MDDDYEAYHRLFLSLL	41.80	
MDDDYEAYHSGFLSLL	337.92	
MDDDYEAYHSHFLSLL	24.22	
MDDDYEAYHSIFLSLL	10.94	
MDDDYEAYHSKFLSLL	169.63	
MDDDYEAYHSLALSLL	337.92	
MDDDYEAYHSLFGSLL	337.92	
MDDDYEAYHSLFISLL	5.63	
MDDDYEAYHSLFLALL	2.81	

Sequence	hit_pair_ratio [1]	hit_pair_ratio [2]
MDDDYEAYHSLFLFLL	5.36	
MDDDYEAYHSLFLHLL	2.92	
MDDDYEAYHSLFLLLL	4.48	
MDDDYEAYHSLFLMLL	26.03	
MDDDYEAYHSLFLNLL	33.93	
MDDDYEAYHSLFLPLL	337.92	
MDDDYEAYHSLFLSAL	337.92	
MDDDYEAYHSLFLSGL	337.92	
MDDDYEAYHSLFLSHL	84.48	
MDDDYEAYHSLFLSLF	169.63	
MDDDYEAYHSLFLSLI	168.96	
MDDDYEAYHSLFLSLK	19.88	
MDDDYEAYHSLFLSPL	33.79	
MDDDYEAYHSLFLSQL	337.92	
MDDDYEAYHSLFLSRL	337.92	
MDDDYEAYHSLFLSSL	337.92	
MDDDYEAYHSLFLTLL	2.44	
MDDDYEAYHSLFLWLL	2.95	
MDDDYEAYHSLFLYLL	8.88	
MDDDYEAYHSLFVSLL	37.55	
MDDDYEAYHSLKLSLL	30.72	
MDDDYEAYHSLSLSLL	337.92	
MDDDYEAYHSLYLSLL	1.65	
MDDDYEAYHSMFLSLL	168.96	

Sequence	hit_pair_ratio [1]	hit_pair_ratio [2]
MDDDYEAYHSNFLSLL	168.96	
MDDDYEAYHSPFLSLL	169.63	
MDDDYEAYHSRFLSLL	172.84	
MDDDYEAYHTLFLSLL	169.63	
MDDDYEAYHVLFLSLL	37.55	
MDDDYEAYHWLFLSLL	1.50	
MDDDYEAYHYLFLSLL	1.94	
MDDDYEAYISLFLSLL	13.00	
MDDDYEAYKSLFLSLL	84.48	
MDDDYEAYLSLFLSLL	22.58	
MDDDYEAYNSLFLSLL	169.63	
MDDDYEAYQSLFLSLL	28.27	
MDDDYEAYSSLFLSLL	33.87	
MDDDYEAYWSLFLSLL	28.16	
MDDDYEAYYSLFLSLL	24.06	
MDDDYEDYHSLFLSLL [mut_04429]		4.40
MDDDYEEYHSLFLSLL [mut_04430]		4.58
MDDDYEFYHSLFLSLL [mut_04431]		83.09
MDDDYEGYHSLFLSLL [mut_04432]		1.19
MDDDYEIYHSLFLSLL [mut_04434]		18.85
MDDDYEKYHSLFLSLL [mut_04435]		48.44
MDDDYELYHSLFLSLL [mut_04436]		7.38
MDDDYEMYHSLFLSLL [mut_04437]		59.15
MDDDYENYHSLFLSLL [mut_04438]		2.33

Sequence	hit_pair_ratio [1]	hit_pair_ratio [2]
MDDDYEPYHSLFLSLL [mut_04439]		9.13
MDDDYEQYHSLFLSLL [mut_04440]		112.94
MDDDYERYHSLFLSLL [mut_04441]		84.82
MDDDYESYHSLFLSLL [mut_04442]		37.68
MDDDYETYHSLFLSLL [mut_04443]		112.94
MDDDYEVYHSLFLSLL [mut_04444]		28.27
MDDDYEWYHSLFLSLL	1.12	
MDDDYEYYHSLFLSLL	2.04	
MDDDYFAYHSLFLSLL [mut_04413]		168.96
MDDDYGAYHSLFLSLL [mut_04414]		33.85
MDDDYHAYHSLFLSLL [mut_04415]		84.48
MDDDYIAYHSLFLSLL [mut_04416]		56.54
MDDDYLAYHSLFLSLL [mut_04418]		84.82
MDDDYMAYHSLFLSLL [mut_04419]		112.64
MDDDYNAYHSLFLSLL [mut_04420]		2.54
MDDDYPAYHSLFLSLL [mut_04421]		1.34
MDDDYQAYHSLFLSLL [mut_04422]		12.11
MDDDYSAYHSLFLSLL [mut_04424]		84.48
MDDDYTAYHSLFLSLL [mut_04425]		48.27
MDDDYVAYHSLFLSLL [mut_04426]		112.64
MDDDYWAYHSLFLSLL [mut_04427]		2.20
